Measured values as given in patent US20170157055A1, “PHAR[…] DETERRENT COMPOSITION” (priority 2014, published 2017).
Where two headings read alike, the source gives them in different places.

Description: 350 mg of potassium bicarbonate equivalent to single dosage unit was added in beaker 1 while of potassium bicarbonate equivalent to three dosage units were added in beaker 2.

SMILES: O=C([O-])O.[K+] [potassium bicarbonate]
- pH of media after addition (beaker 1: 350 mg (single dosage unit) in 900 ml 0.01N HCl (initial pH 1.90)): 2.30
- pH of media after addition (beaker 2: equivalent to three dosage units in 900 ml 0.01N HCl (initial pH 1.90)): 6.15
